From patent US10626100B2, “Selective HDAC6 inhibitors” (The Trustees of Columbia University in the City of New York, priority 2013, dated 2020)
Entries after “also recorded” stand apart in the source; their conditions may differ. One block for each molecule: values may come before it.

Key:
[1] = test system: acetylated alpha-tubulin and acetylated histone H3 in LNCaP (human prostate cancer cells); test: Accumulation of acetylated proteins in LNCaP cells (western blot); assay type: cell-based; settings: LNCaP cells, FIG. 2
Method: FIG. 2. Blot showing accumulation of acetylated alpha-tubulin and acetylated histone H3 in LNCaP (human prostate cancer cells) cultured with compounds 8 or 11. GADPH used as loading control.
FIG. 5. Western blots of acetylated alpha-tubulin (Acet-Tub) and acetylated histone H3 (Acet-H3) in HFS (normal) and LNCaP (transformed) cells treated with compound 8 at 8, 16, 32, and 64 μM for 24 h. Western blots of GAPDH and total histone H3 (Total-H3) are loading controls.
(§1) Recombinant HDAC1 and HDAC6 are used to evaluate the selective inhibitory potency of each compound. Cell based assays: Normal cells (Human Foreskin Fibroblast cells), LNCaP (human prostate cancer cells), MCF-7 (human breast cancer cells, A549 (human adenocarcinoma of lung cells) and ARP-1 (human multiple myeloma cells) are used in these assays. Cells were cultured for up to 72 hr without and with the potential HDAC6-selective inhibitor. SAHA was used as a control. Cell number and cell viability were determined by enumeration. Proteins were extracted from cells and assayed for accumulation of acetylated tubulin and acetylated histones. All methods are described in Namdar et al., PNAS, 2010, 107:20003-8. In vivo animal studies: Potential HDAC6 inhibitor compounds are further assayed by administration to mice for up to 5 days with daily injections. Animals are sacrificed and tissues are analyzed for accumulation of acetylated tubulin and acetylated histones.

[2] = target: T1, HDAC6 (Homo sapiens, UniProt Q9UBN7); test: Inhibition of recombinant HDAC6; settings: for Ratio: HDAC1/HDAC6: ratio of IC50 HDAC1 to IC50 HDAC6
T1 sequence (Q9UBN7 1-1215): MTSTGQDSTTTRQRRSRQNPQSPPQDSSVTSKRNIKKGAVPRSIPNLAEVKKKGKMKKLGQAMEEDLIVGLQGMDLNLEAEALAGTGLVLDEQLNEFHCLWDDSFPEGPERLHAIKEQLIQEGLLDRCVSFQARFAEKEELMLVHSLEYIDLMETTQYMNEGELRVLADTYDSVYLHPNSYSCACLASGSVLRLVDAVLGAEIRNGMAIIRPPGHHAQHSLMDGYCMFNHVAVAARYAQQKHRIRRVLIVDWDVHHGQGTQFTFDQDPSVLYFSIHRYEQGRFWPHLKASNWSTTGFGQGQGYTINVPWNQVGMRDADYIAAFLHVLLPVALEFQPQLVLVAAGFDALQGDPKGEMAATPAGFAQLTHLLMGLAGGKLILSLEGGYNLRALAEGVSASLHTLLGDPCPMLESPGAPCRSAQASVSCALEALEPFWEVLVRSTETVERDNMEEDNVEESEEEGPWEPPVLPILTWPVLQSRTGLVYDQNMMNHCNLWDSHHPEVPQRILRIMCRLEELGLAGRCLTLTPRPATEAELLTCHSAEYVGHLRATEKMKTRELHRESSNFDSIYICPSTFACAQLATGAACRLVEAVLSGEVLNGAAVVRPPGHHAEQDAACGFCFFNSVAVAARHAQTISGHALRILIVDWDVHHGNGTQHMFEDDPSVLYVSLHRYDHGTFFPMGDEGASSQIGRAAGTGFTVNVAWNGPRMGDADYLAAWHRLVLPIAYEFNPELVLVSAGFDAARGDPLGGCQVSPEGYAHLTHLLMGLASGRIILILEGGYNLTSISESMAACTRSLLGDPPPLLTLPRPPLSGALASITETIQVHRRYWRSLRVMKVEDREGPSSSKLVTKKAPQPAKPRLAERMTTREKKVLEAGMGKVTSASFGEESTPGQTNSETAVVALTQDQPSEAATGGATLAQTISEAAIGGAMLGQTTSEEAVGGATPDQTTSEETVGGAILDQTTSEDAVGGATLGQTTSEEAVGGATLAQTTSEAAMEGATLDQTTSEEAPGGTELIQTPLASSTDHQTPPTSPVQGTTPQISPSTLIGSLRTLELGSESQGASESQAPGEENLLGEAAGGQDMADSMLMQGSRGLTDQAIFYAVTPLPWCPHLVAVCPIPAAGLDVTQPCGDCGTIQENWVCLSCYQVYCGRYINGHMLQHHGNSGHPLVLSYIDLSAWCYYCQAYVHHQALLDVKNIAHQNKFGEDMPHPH

[3] = target: HDAC1 (Homo sapiens, UniProt Q13547); test: Inhibition of recombinant HDAC1; assay type: biochemical; settings: read-out: IC50 (nM) HCAC1
HDAC1, sequence (Q13547 whole entry): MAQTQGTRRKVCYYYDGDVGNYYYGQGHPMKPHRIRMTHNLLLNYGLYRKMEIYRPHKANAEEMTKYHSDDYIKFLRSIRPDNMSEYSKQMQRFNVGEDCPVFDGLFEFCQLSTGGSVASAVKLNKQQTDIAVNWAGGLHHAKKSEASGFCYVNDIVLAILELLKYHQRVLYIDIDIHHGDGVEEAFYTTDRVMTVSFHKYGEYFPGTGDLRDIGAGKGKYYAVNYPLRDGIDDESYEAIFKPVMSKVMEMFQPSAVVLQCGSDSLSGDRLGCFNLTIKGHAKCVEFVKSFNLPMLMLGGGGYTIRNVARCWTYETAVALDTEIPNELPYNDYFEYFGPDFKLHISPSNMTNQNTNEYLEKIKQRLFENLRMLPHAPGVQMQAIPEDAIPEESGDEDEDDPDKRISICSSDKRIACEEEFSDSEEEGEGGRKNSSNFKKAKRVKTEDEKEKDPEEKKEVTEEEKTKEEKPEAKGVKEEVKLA

[4] = test system: acetylated alpha-tubulin and acetylated histone H3 in LNCaP (human prostate cancer cells); settings: SAHA; literature cited, cells not given; cited from earlier work
[5] = test system: LNCaP (human prostate adenocarcinoma) cells; test: Cell growth and viability of LNCaP cells; assay type: cell-based; settings: SAHA control
Method: FIG. 3. Cell growth of HFS (normal) and LNCaP (transformed) cells treated with compound 8 over 72 h.
FIG. 4. Cell viability of HFS (normal) and LNCaP (transformed) cells treated with compound 8 over 72 h.
as §1
The effect of compound 8 on the cell growth and viability of normal (HFS, human foreskin fibroblast) and transformed (LNCaP, human prostate adenocarcinoma) cells cultured with 8, 16, 32 or 64 μM HPB for up to 72 h was evaluated.

[6] = test system: androgen-dependent CWR22 human prostate cancer xenograft; test: CWR22 human prostate cancer xenograft in nude mice; assay type: in vivo; settings: 21 days; daily 300 mg/kg compound 8 or weekly 3 mg/kg etoposide alone
[7] = test system: acetylated alpha-tubulin and histones in CWR22 tumors and spleen; test: Acetylated lysine patterns in CWR22 tumors and spleen; assay type: in vivo, nude mice
Source text: Tumors and spleen are removed from the animals, and histones and proteins are extracted for the detection of acetylated lysine patterns.

- IC50 [2]: 0.011 µM
- Ratio: HDAC1/HDAC6 [2]: 24.54
- IC50 [3]: 270 nM
SMILES: O=C(NO)c1ccc(CN(CCO)C(=O)c2ccccc2)cc1 [Compound 11, N-hydroxy-4-((N-(2-hydroxyethyl)-2-benzamido)methyl)benzamide]
- accumulation of acetylated histones (H3) [1]: did not cause accumulation of actylated histones; also recorded: without induction of H3 acetylation
- accumulation of acetylated α-tubulin [1]: caused the accumulation of acetylated α-tubulin; also recorded: significant levels of tubulin acylation were present

SMILES: O=C(CCCCCCC(=O)Nc1ccccc1)NO [SAHA, suberoylanilide hydroxamic acid, reference compound]
- accumulation of acetylated alpha-tubulin [4]: induced the accumulation of acetylated alpha-tubulin and histone H3
- accumulation of acetylated histone H3 [4]: induced the accumulation of acetylated alpha-tubulin and histone H3
- death of LNCaP cells [5]: kills LNCaP cells
- Ratio: HDAC1/HDAC6 [2]: 3.09

- weight loss, single agent [6]: no weight loss
SMILES: COc1cc([C@@H]2c3cc4c(cc3[C@@H](O[C@@H]3O[C@@H]5CO[C@@H](C)O[C@H]5[C@H](O)[C@H]3O)[C@H]3COC(=O)[C@H]23)OCO4)cc(OC)c1O [etoposide, reference compound]
- growth of established CWR22 tumors, single agent [6]: no significant suppression of the growth
- accumulation of histones in tumors, single agent ([7]; mice injected with compound 8 alone or etoposide): Increased levels of accumulation of histones
- accumulation of acetylated alpha-tubulin in CWR22 tumors and spleen, single agent ([7]; mice treated with compound 8 or etoposide): increased accumulation of acetylated alpha-tubulin

- IC50 [3]: 193 nM
SMILES: O=C(CCCCCCC(=O)Nc1ccc([C@H]2O[C@@H](CSc3nc(-c4ccccc4)c(-c4ccccc4)o3)C[C@@H](c3ccc(CO)cc3)O2)cc1)NO [Tubacin, reference compound]
